Source: ChEMBL document CHEMBL5500337, “Synthesis and anti-liver fibrosis activity of imidazole and thiazole compounds containing amino acids” (Eur J Med Chem, 2024)
Values belong to the compound of their own block, whether it stands above or below them. Calls of active or inactive are those of the source. The calls are words filed in the database; no cut-off is given here.

How the values were obtained:
[1] = target: Mitogen-activated protein kinase 14 (Homo sapiens, UniProt Q16539); experiment: Inhibition of human recombinant p38alpha expressed in Escherichia coli incubated for 60 mins in presence of ATP by microplate scintillation counter
Chain of Mitogen-activated protein kinase 14 (Q16539 whole entry): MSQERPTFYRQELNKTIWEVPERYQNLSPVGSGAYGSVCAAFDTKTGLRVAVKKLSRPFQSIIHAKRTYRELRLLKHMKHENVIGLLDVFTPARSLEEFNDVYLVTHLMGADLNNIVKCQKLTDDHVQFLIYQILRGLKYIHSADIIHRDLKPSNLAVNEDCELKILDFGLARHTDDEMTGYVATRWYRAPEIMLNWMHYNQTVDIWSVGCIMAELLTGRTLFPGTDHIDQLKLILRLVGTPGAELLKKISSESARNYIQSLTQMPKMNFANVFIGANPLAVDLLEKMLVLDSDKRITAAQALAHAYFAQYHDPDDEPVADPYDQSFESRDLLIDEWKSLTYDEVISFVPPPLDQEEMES

[2] = Half-life in male Sprague-Dawley rat at 4 mg/kg, iv measured after 8 hrs by UPLC-MS/MS analysis; type: ADME, organism-based; conditions: in vivo
[3] = MRT (0 to t) in male Sprague-Dawley rat at 4 mg/kg, iv measured after 8 hrs by UPLC-MS/MS analysis; type: ADME, organism-based; conditions: in vivo
[4] = MRT (0 to t) in male Sprague-Dawley rat at 15 mg/kg, po measured after 8 hrs by UPLC-MS/MS analysis; type: ADME, organism-based; conditions: in vivo
[5] = AUC (0 to infinity) in male Sprague-Dawley rat at 15 mg/kg, po measured after 8 hrs by UPLC-MS/MS analysis; type: ADME, organism-based; conditions: in vivo
[6] = Clearance in male Sprague-Dawley rat at 4 mg/kg, iv measured after 8 hrs by UPLC-MS/MS analysis; type: ADME, organism-based; conditions: in vivo
[7] = system: LX-2; experiment: Anti-fibrotic activity in human LX-2 cells assessed as inhibition of alpha-SMA expression preincubated with compound for 1 hrs followed by TGFbeta addition and measured after 24 hrs by DAPI staining based confocal laser scanning microscopic analysis; type: functional, cell-based; conditions: dose 5-20 µM, time 25.0 hrs
[8] = AUC (0 to t) in male Sprague-Dawley rat at 15 mg/kg, po measured after 8 hrs by UPLC-MS/MS analysis; type: ADME, organism-based; conditions: in vivo
[9] = system: LX-2; experiment: Cytotoxicity against human LX-2 cells assessed as reduction in cell viability upto 50 uM incubated for 24 hrs by MTT assay; type: toxicity, cell-based; conditions: lx-2, 24 h
[10] = Cmax in male Sprague-Dawley rat at 4 mg/kg, iv measured after 8 hrs by UPLC-MS/MS analysis; type: ADME, organism-based; conditions: in vivo
[11] = Half-life in male Sprague-Dawley rat at 15 mg/kg, po measured after 8 hrs by UPLC-MS/MS analysis; type: ADME, organism-based; conditions: in vivo
[12] = system: LX-2; experiment: Anti-fibrotic activity in human LX-2 cells assessed as reduction in collagen I protein expression at 20 uM preincubated with compound for 1 hrs followed by TGFbeta addition and measured after 24 hrs by Western blot analysis; type: functional, cell-based; conditions: time 25.0 hrs
[13] = AUC (0 to infinity) in male Sprague-Dawley rat at 4 mg/kg, iv measured after 8 hrs by UPLC-MS/MS analysis; type: ADME, organism-based; conditions: in vivo
[14] = Oral bioavailability in male Sprague-Dawley rat at 15 mg/kg measured after 8 hrs by UPLC-MS/MS analysis; type: ADME, organism-based; conditions: in vivo
[15] = Cmax in male Sprague-Dawley rat at 15 mg/kg, po measured after 8 hrs by UPLC-MS/MS analysis; type: ADME, organism-based; conditions: in vivo
[16] = Tmax in male Sprague-Dawley rat at 4 mg/kg, iv measured after 8 hrs by UPLC-MS/MS analysis; type: ADME, organism-based; conditions: in vivo
[17] = Tmax in male Sprague-Dawley rat at 15 mg/kg, po measured after 8 hrs by UPLC-MS/MS analysis; type: ADME, organism-based; conditions: in vivo
[18] = system: LX-2; experiment: Anti-fibrotic activity in human LX-2 cells assessed as reduction in alpha-SMA protein expression at 20 uM preincubated with compound for 1 hrs followed by TGFbeta addition and measured after 24 hrs by Western blot analysis; type: functional, cell-based; conditions: time 25.0 hrs
[19] = AUC (0 to t) in male Sprague-Dawley rat at 4 mg/kg, iv measured after 8 hrs by UPLC-MS/MS analysis; type: ADME, organism-based; conditions: in vivo
[20] = system: LX-2; experiment: Anti-fibrotic activity in human LX-2 cells assessed as inhibition of alpha-SMA mRNA expression at 5 uM preincubated with compound for 1 hrs followed by TGFbeta addition and measured after 24 hrs by RT-PCR analysis; type: functional, cell-based; conditions: time 25.0 hrs
[21] = Clearance in male Sprague-Dawley rat at 15 mg/kg, po measured after 8 hrs by UPLC-MS/MS analysis; type: ADME, organism-based; conditions: in vivo
[22] = system: LX-2; experiment: Cytotoxicity against human LX-2 cells assessed as reduction in cell viability upto 100 uM incubated for 24 hrs by MTT assay; type: toxicity, cell-based; conditions: lx-2, 24 h
[23] = system: LX-2; experiment: Cytotoxicity against human LX-2 cells assessed as reduction in cell viability at 100 uM incubated for 24 hrs by MTT assay; type: toxicity, cell-based; conditions: lx-2, 24 h
[24] = system: LX-2; experiment: Cytotoxicity against human LX-2 cells assessed as reduction in cell viability at 6.25 uM incubated for 24 hrs by MTT assay; type: toxicity, cell-based; conditions: lx-2, 24 h
[25] = system: LX-2; experiment: Anti-fibrotic activity in human LX-2 cells assessed as reduction in alpha-SMA protein expression at 5 uM preincubated with compound for 1 hrs followed by TGFbeta addition and measured after 24 hrs by Western blot analysis; type: functional, cell-based; conditions: time 25.0 hrs

SMILES: Cc1cccc(-c2nc(NC(=S)[C@@H](N)CC(C)C)sc2-c2ccc3ncnn3c2)n1
IC50 [1]: > 1 µM

SMILES: Cc1cccc(-c2[nH]c(CNC(=O)[C@@H]3CCCCN3)nc2-c2ccc3ncnn3c2)n1
IC50 [1]: > 3 µM

SMILES: Cc1cccc(-c2[nH]c(CNC(=O)[C@H](N)Cc3ccccc3)nc2-c2ccc3ncnn3c2)n1
half-life [2]: 2.24 h | MRT last at 8 h [3]: 1.01 h | MRT last at 8 h [4]: 2.79 h | AUC [5]: 2667 ng·h/mL | clearance [6]: 5.23 mL/min/kg | Activity [7]: Dose-Dependent Effect | AUC(0-t) at 8 h [8]: 1220 ng·h/mL | Activity [9]: Non-Toxic | Cmax [10]: 43100 ng/mL | half-life [11]: 9.14 h | Activity [12]: Active | AUC [13]: 12802 ng·h/mL | F [14]: 2.59% | Cmax [15]: 1390 ng/mL | Tmax [16]: 0 h | Tmax [17]: 6.6 min | Activity [18]: Active | AUC(0-t) at 8 h [19]: 12500 ng·h/mL | Activity [20]: Active | CL/F [21]: 109 mL/min/kg

SMILES: Cc1cccc(-c2nc(NC(=O)[C@H](N)Cc3ccccc3)sc2-c2ccc3ncnn3c2)n1
IC50 [1]: > 3 µM

SMILES: Cc1cccc(-c2nc(NC(=O)[C@@H](N)CC(C)C)sc2-c2ccc3ncnn3c2)n1
Activity [22]: Non-Toxic | IC50 [1]: > 1 µM | Activity [12]: Active | Activity [18]: Active | Activity [20]: Active

SMILES: Cc1cccc(-c2nc(NC(=O)[C@H](N)CC(C)C)sc2-c2ccc3ncnn3c2)n1
IC50 [1]: > 3 µM | Activity [23]: Toxic | Activity [12]: Active | Activity [24]: Non-Toxic | Activity [18]: Active | Activity [20]: Active

SMILES: Cc1cccc(-c2nn3c(c2-c2ccnc4ccc(C(N)=O)cc24)CCC3)n1
Activity [25]: Active

SMILES: Cc1cccc(-c2nc(NC(=O)[C@H]3CCCCN3)sc2-c2ccc3ncnn3c2)n1
IC50 [1]: > 3 µM

SMILES: Cc1cccc(-c2[nH]c(CNC(=O)[C@H](N)CC(C)C)nc2-c2ccc3ncnn3c2)n1
IC50 [1]: > 3 µM

SMILES: Cc1cccc(-c2[nH]c(CNC(=O)[C@@H](N)CC(C)C)nc2-c2ccc3ncnn3c2)n1
IC50 [1]: > 3 µM

Continued, values first:

IC50 [1]: > 3 µM
SMILES: Cc1cccc(-c2[nH]c(CNC(=O)[C@H](C)N)nc2-c2ccc3ncnn3c2)n1

IC50 [1]: > 1 µM
SMILES: Cc1cccc(-c2nc(NC(=S)[C@H](N)CC(C)C)sc2-c2ccc3ncnn3c2)n1

IC50 [1]: > 3 µM
SMILES: Cc1cccc(-c2nc(NC(=O)[C@@H](N)Cc3ccccc3)sc2-c2ccc3ncnn3c2)n1

IC50 [1]: > 3 µM
SMILES: Cc1cccc(-c2nc(NC(=O)[C@@H]3CCCCN3)sc2-c2ccc3ncnn3c2)n1

IC50 [1]: > 1 µM
SMILES: Cc1cccc(-c2nc(NC(=O)[C@H](C)N)sc2-c2ccc3ncnn3c2)n1

IC50 [1]: > 1 µM
SMILES: Cc1cccc(-c2[nH]c(CNC(=O)[C@H]3CCCCN3)nc2-c2ccc3ncnn3c2)n1

IC50 [1]: > 3 µM
SMILES: Cc1cccc(-c2[nH]c(CNC(=S)[C@@H](N)Cc3ccccc3)nc2-c2ccc3ncnn3c2)n1

IC50 [1]: > 1 µM
SMILES: Cc1cccc(-c2[nH]c(CNC(=S)[C@H](N)Cc3ccccc3)nc2-c2ccc3ncnn3c2)n1
